pEC50: −log10 of the molar value.
These compounds were tested against Nrf2-Keap1 (Homo sapiens, UniProt Q14145) (assay: DiscoveRx PathHunter Nrf2-Keap1 nuclear translocation functional assay (agonist format)). Conditions: 10 concentrations, 3-fold serial dilutions, 30 μM top concentration, in duplicate; agonist mode; normalized to CDDO methyl ester and vehicle.
Type: cell-based
Description: DiscoveRx PathHunter® Nrf2-Keap1 Functional Assay
DiscoveRx's Nrf2-Keapl translocation assay was used to profile compounds. Primary Screening was performed in duplicate at a single concentration of 10 μM and EC50 determinations were performed in duplicate at 10 concentrations with 3-fold serial dilutions at a 30 μM top concentration or an otherwise specified top concentration.
The PathHunter® Nuclear Translocation assay detects translocation of a target protein to, or from, the nucleus. In this system, Prolink™ (PK), a small enzyme fragment, is fused to the protein of interest and Enzyme Acceptor (EA) is localized in the nucleus. Activation of the signaling pathway induces the target protein to either transit into the nucleus, thus forcing complementation of the PK and EA fragments, or out of the nucleus, hindering complementation of the fragments.
Cell handling: PathHunter Pathway cell lines were expanded from freezer stocks according to standard procedures. 5000 cells were seeded in Cell Plating Reagent 0 (containing 1% FBS) to a total volume of 20 μL into white walled, 384-well microplates and incubated for the overnight prior to testing.
Agonist format: For Agonist determination, cells were incubated with sample to induce response. Dilution of sample stocks was performed to generate 100× sample in DMSO. Intermediate dilution of sample stocks was performed to generate 5× sample in assay buffer (Cell Plating Reagent 0 containing 1% FBS). 5 μL of 5× sample was added to cells and incubated at room temperature for 6 hours. Vehicle concentration was 1%.
Signal detection: Assay signal was generated through a single addition of 25 μL (100% v/v) of PathHunter Flash Detection reagent, followed by a one hour incubation at room temperature. Microplates were read following signal generation with a PerkinElmer Envision™ instrument for chemiluminescent signal detection.
Data analysis: Compound activity was analyzed using CBIS data analysis suite (ChemInnovation, CA). For agonist mode assays, percentage activity was calculated using the following formula: % Activity=100%×(mean RLU of test sample−mean RLU of vehicle control)/(mean MAX RLU control ligand−mean RLU of vehicle control). For EC50 determination, a control agonist dose response curve was generated in the Keap 1-Nrf2 biosensor assay, data was normalized to the maximal and minimal response observed in the presence of the control ligand and vehicle respectively. CDDO methyl ester was used as a control compound. Compounds were tested in the agonist mode of the assay and data was normalized to the maximal and minimal response observed in the presence of control ligand and vehicle.

Chain of Nrf2-Keap1 (Q14145 whole entry): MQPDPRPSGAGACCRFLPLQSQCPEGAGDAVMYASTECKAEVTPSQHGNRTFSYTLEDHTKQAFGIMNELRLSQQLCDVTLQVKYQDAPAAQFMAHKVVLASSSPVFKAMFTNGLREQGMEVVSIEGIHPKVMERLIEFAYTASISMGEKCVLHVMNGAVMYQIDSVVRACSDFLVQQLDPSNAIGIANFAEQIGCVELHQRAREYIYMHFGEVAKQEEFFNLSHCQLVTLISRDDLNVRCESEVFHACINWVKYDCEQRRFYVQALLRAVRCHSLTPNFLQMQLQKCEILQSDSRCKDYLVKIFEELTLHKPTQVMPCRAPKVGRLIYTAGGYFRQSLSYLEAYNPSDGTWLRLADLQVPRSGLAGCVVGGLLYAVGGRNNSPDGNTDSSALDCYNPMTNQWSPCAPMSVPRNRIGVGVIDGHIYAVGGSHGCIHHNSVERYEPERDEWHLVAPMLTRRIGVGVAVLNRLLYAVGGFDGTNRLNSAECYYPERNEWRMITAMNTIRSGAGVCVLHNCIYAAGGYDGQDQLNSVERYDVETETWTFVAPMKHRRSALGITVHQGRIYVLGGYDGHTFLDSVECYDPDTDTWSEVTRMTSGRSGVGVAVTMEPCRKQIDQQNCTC

`CC(=O)N[C@@H]1COC(=O)/C1=C/CC[C@H]1C2(CC[C@H]3C(C)(C)CCC[C@@]31C)CC2` [Example 35, N-((S,E)-5-oxo-4-(3-((1′S,4a′S,8a′S)-5′,5′,8a′-trimethyloctahydro-1′H-spiro[cyclopropane-1,2′-naphthalen]-1′-yl)propylidene)tetrahydrofuran-3-yl)acetamide] and `CC(=O)N[C@@H]1COC(=O)/C1=C\CC[C@H]1C2(CC[C@H]3C(C)(C)CCC[C@@]31C)CC2` [Example 36, N—((S,Z)-5-oxo-4-(3-((1′S,4a′S,8a′S)-5′,5′,8a′-trimethyloctahydro-1′H-spiro[cyclopropane-1,2′-naphthalen]-1′-yl)propylidene)tetrahydrofuran-3-yl)acetamide] cannot be ordered by pEC50: under 5.70 for the first, under 5.70 for the second.

`C=C1CC[C@@H]2[C@@H](C)[C@](O)(C(F)(F)F)CC[C@@]2(C)[C@@H]1C/C=C1/C(=O)OC[C@H]1O` [Example 42A, (S,E)-4-hydroxy-3-(2-((1R,4aR,5R,6S,8aR)-6-hydroxy-5,8a-dimethyl-2-methylene-6-(trifluoromethyl)decahydronaphthalen-1-yl)ethylidene)dihydrofuran-2(3H)one] and `C=C1CC[C@@H]2[C@@H](C)[C@@](O)(C(F)(F)F)CC[C@@]2(C)[C@@H]1C/C=C1/C(=O)OC[C@H]1O` [Example 42B, (S,E)-4-hydroxy-3-(2-((1R,4aR,5R,6R,8aR)-6-hydroxy-5,8a-dimethyl-2-methylene-6-(trifluoromethyl)decahydronaphthalen-1-yl)ethylidene)dihydrofuran-2(3H)-one] cannot be ordered by pEC50: over 6.30 for the first, over 6.30 for the second.

`CC1=CC[C@@H]2[C@@H](C)[C@](O)(C(F)(F)F)CC[C@@]2(C)[C@@H]1C/C=C1/C(=O)OC[C@H]1O` [Example 47, (S,E)-4-hydroxy-3-(2-((1R,4aR,5R,6S,8aR)-6-hydroxy-2,5,8a-trimethyl-6-(trifluoromethyl)-1,4,4a,5,6,7,8,8a-octahydronaphthalen-1-yl)ethylidene)dihydrofuran-2(3H)-one] and `CC1=CC[C@@H]2[C@@H](C)[C@@](O)(C(F)(F)F)CC[C@@]2(C)[C@@H]1C/C=C1/C(=O)OC[C@H]1O` [Example 48, (S,E)-4-hydroxy-3-(2-((1R,4aR,5R,6R,8aR)-6-hydroxy-2,5,8a-trimethyl-6-(trifluoromethyl)-1,4,4a,5,6,7,8,8a-octahydronaphthalen-1-yl)ethylidene)dihydrofuran-2(3H)-one] cannot be ordered by pEC50: under 5.70 for the first, under 5.70 for the second.

Same assay, conditions: 6 h, single concentration of 10 μM, in duplicate; agonist mode; normalized to control ligand (CDDO methyl ester) and vehicle

First: CC1(C)CCC[C@@]2(C)[C@H]1CCC1(CC1)[C@@H]2CC/C=C1\C(=O)OC[C@H]1NC=O [Example 34, N-((S,Z)-5-oxo-4-(3-((l′S,4a′S,8a′S)-5′,5′,8a′-trimethyloctahydro-1′H-spiro[cyclopropane-1,2′-naphthalen]-1′-yl)propylidene)tetrahydrofuran-3-yl)formamide]
Second: CC(=O)N[C@@H]1COC(=O)/C1=C/CC[C@H]1C2(CC[C@H]3C(C)(C)CCC[C@@]31C)CC2 [Example 35, N-((S,E)-5-oxo-4-(3-((1′S,4a′S,8a′S)-5′,5′,8a′-trimethyloctahydro-1′H-spiro[cyclopropane-1,2′-naphthalen]-1′-yl)propylidene)tetrahydrofuran-3-yl)acetamide]
The activation at 10 µM of the first is lower: 30 to 50% for the first, 51 to 100% for the second.

First: CC(=O)N[C@@H]1COC(=O)/C1=C\CC[C@H]1C2(CC[C@H]3C(C)(C)CCC[C@@]31C)CC2 [Example 36, N—((S,Z)-5-oxo-4-(3-((1′S,4a′S,8a′S)-5′,5′,8a′-trimethyloctahydro-1′H-spiro[cyclopropane-1,2′-naphthalen]-1′-yl)propylidene)tetrahydrofuran-3-yl)acetamide]
Second: CC1(C)CCC[C@@]2(C)[C@H]1CCC1(CC1)[C@@H]2CC/C=C1/C(=O)OC[C@H]1NS(C)(=O)=O [Example 37, N—((S,E)-5-oxo-4-(3-((1′S,4a′S,8a′S)-5′,5′,8a′-trimethyloctahydro-1′H-spiro[cyclopropane-1,2′-naphthalen]-1′-yl)propylidene)tetrahydrofuran-3-yl)methanesulfonamide]
The activation at 10 µM of the first is higher: 51 to 100% for the first, 30 to 50% for the second.

Compound `CC1(C)CCC[C@@]2(C)[C@H]1CCC1(CC1)[C@@H]2CC/C=C1\C(=O)OC[C@H]1NS(C)(=O)=O` [Example 38, N—((S,Z)-5-oxo-4-(3-((1′S,4a′S,8a′S)-5′,5′,8a′-trimethyloctahydro-1′H-spiro[cyclopropane-1,2′-naphthalen]-1′-yl)propylidene)tetrahydrofuran-3-yl)methanesulfonamide] has an activation at 10 µM of 30 to 50%.

Same assay, conditions: single concentration of 10 μM, in duplicate; agonist mode, 6 hours; normalized to control ligand (CDDO methyl ester) and vehicle

`C=C1CC[C@@H]2[C@]3(C)COS(=O)O[C@@H]3CC[C@@]2(C)[C@@H]1C/C=C1/C(=O)OCC1NC(=O)COC` (stereo partly drawn) [Example 40A, N-((E)-4-(2-((4aR,6aS,7R,10aS,10bR)-6a,10b-dimethyl-8-methylene-3-oxidodecahydro-1H-naphtho[2,1-d][1,3,2]dioxathiin-7-yl)ethylidene)-5-oxotetrahydrofuran-3-yl)-2-methoxyacetamide] gave an activation at 10 µM of 51 to 100%.
